# Test results as given in paper PMC12389646, “Design, Synthesis, and Bioactivity Assessment of Modified Vemurafenib Analog” (Pharmaceuticals, 2025).
# pIC50: −log10 of the molar value.
# Key:
# MMP-2 = assay: Gelatin zymography, MMP-2 in A375 conditioned media; format: cell-based, human; conditions: A375 cells, 1 μM and 5 μM, 24 h
# Description: (§1) The potential effects of vemurafenib and its analogs on MMP-2 and MMP-9 activity in A375 cells were evaluated using gelatin zymography to detect gelatinolytic activity in conditioned media.
# (§2) Gelatin zymography was carried out according to [30], using 7.5% SDS-polyacrylamide gels with 0.2% (w/v) gelatin. SDS-PAGE was run at 100 V at room temperature. Following electrophoresis, the gels were removed and placed in 2.5% (v/v) Triton X-100 to renature enzymes for 60 min. Then, gels were incubated in 50 mM Tris-HCl, 1 μM ZnCl2, 5 mM CaCl2, pH 7.5, overnight, to allow sufficient time for genatinolytic activity to occur. Following overnight incubation at 37 °C, gels were incubated in a staining solution (0.5% (v/v) Coomassie blue in a 40% methanol-10% acetic acid-water mixture) for 60 min. Following incubation, the staining solution, the gels were washed with the destaining solution (without coomassie blue) until the time to start to see the bands. Then imaged with a ChemiDoc^TM MP (BIO-RAD, Hercules, CA, USA) gel imaging system. Total protein and gelatinase activity were quantified using Image Lab™ Software 6.1 (BIO-RAD, Hercules, CA, USA).
# [1] = tested on: human melanoma A375 cells; assay: MTS cell viability assay, A375; format: cell-based; conditions: A-375, 24 h treatment, 0.01-10 μM tested
# Description: (§3) The human cutaneous melanoma cancer cell line A375, obtained from the American Type Culture Collection (ATCC, Rockville, MD, USA) and human embryonic kidney HEK293T cell line, obtained from Rio de Janeiro Cell Bank (BCRJ, Rio de Janeiro, Brazil), were cultured in Dulbecco’s Modified Eagle’s Medium (DMEM, Sigma-Aldrich, St. Louis, MO, USA) supplemented with L-glutamine (2 mM), 10% fetal bovine serum (FBS), 50 IU/mL penicillin and 50 μg/mL streptomycin (Sigma-Aldrich, St. Louis, MO, USA). Cells were maintained at 37 °C in a humidified atmosphere containing 5% CO2. Low cell passages (between 5 and 20) were used in the present study.
# (§4) Cell viability was measured using an MTS method based on the conversion of the tetrazolium salt MTS (3-(4,5-dimethylthiazol-2-yl)-5-(3-carboxymethoxyphenyl)-2-(4-sulfophenyl)-2H-tetrazolium, Sigma-Aldrich, St. Louis, MO, USA) to a purple formazan in the presence of phenazine methosulfate. The enzymes responsible are NADPH-dependent dehydrogenases, which are active in viable cells. Briefly, cells (5 × 10^4/well) were seeded in 96-well plates in medium with 10% FBS; after 24 h, the complete medium was replaced with fresh medium containing 1% FBS and incubated for 24 h. Fresh stock solutions were prepared on the day of the experiment, and the cells were treated with different concentrations of vemurafenib and analogs (0.01, 0.1, 0.5, 1, 5, and 10 μM). Effects were evaluated after 24 h. Untreated cells were incubated as controls. Following drug exposure, MTS was added, and the absorbance was measured at 570 nm using a microplate reader (CLARIOStar Plus, BMG LabTech, Ortenberg, Germany).
# (§5) All the values of in vitro experiments are presented as the mean ± standard error of three independent experiments. Statistical analyses were performed via a one-way ANOVA with Dunnett’s post hoc test, and statistical significance was defined as * p < 0.05. IC50 values were calculated by non-linear regression analysis using an Inhibitor vs. normalized response model curve fit, as implemented. Statistical analyses were performed with GraphPad Prism 10.1.2 (GraphPad Software Inc., San Diego, CA, USA).
# [2] = tested on: non-tumor HEK293T cell line; assay: MTS cell viability assay, HEK293T; format: cell-based, human; conditions: for pIC50: Homo sapiens, HEK-293T, 24 h treatment; for Selectivity Index: IC50 HEK293T divided by IC50 A375
# Description: as §3, §4, §5
# A375 cells = assay: TUNEL DNA fragmentation assay; format: cell-based, human; conditions: 5 μM, 24 h
# Description: To detect DNA fragmentation in A375 cells, a modified apoptosis TUNEL method was used with the MEBSTAIN Apoptosis TUNEL Kit Direct (MBL International Corporation, Woburn, MA, USA) according to the manufacturer’s protocol. Briefly, cells were grown in 8-well culture slides (Corning, NY, USA) and incubated with the compounds (5 μM) for 24 h. Following treatments, the cells were washed with PBS and subsequently stained with TdT buffer, TdT solution, and Propidium Iodide, according to the manufacturer’s instructions. Experiments were conducted by fluorescent microscopy. The images were collected by an EVOS M5000 microscope (Thermo Fisher Scientific, Waltham, MA, USA).
# MMP-9 = assay: Gelatin zymography, MMP-9 in A375 conditioned media; format: cell-based, human; conditions: A375 cells, 1 μM and 5 μM, 24 h
# Description: as §1, §2
pIC50 [1],SMILES,MMP-2 expression and activity (MMP-2),"pIC50 ([2]; HEK293T cells, MTS)",Selectivity Index [2],MMP-2 expression and activity (MMP-2; listed as RF-87A),DNA fragmentation / TUNEL-positive apoptotic cells (A375 cells),MMP-9 expression and activity (MMP-9),"cytotoxicity toward HEK293T cells ([2]; HEK293T cells, MTS)"
4.33,"O=C(N/N=C/c1c[nH]c2ncc(Br)cc12)c1cnc2ccccc2n1 [RF-94B (2d), (E)-N-((5-Bromo-1H-pyrrolo[2,3-b]pyridin-3-yl)methylene)quinoxaline-2-carbohydrazide]",,4.59,0.55,,,,
5.11,CCCS(=O)(=O)Nc1ccc(F)c(C(=O)c2c[nH]c3ncc(-c4ccc(Cl)cc4)cc23)c1F [Vemurafenib],,< 3.00,>1000,,,upregulated,no cytotoxicity

# The remaining lines, values behind:
SMILES,pIC50 [1],MMP-2 expression and activity (MMP-2),"pIC50 ([2]; HEK293T cells, MTS)",Selectivity Index [2],MMP-2 expression and activity (MMP-2; listed as RF-87A),DNA fragmentation / TUNEL-positive apoptotic cells (A375 cells),MMP-9 expression and activity (MMP-9),"cytotoxicity toward HEK293T cells ([2]; HEK293T cells, MTS)"
"O=C(N/N=C/c1c[nH]c2ncc(Br)cc12)c1ccc2c(c1)CCCC2 [RF-86A (2a), (E)-N-((5-Bromo-1H-pyrrolo[2,3-b]pyridin-3-yl)methylene)-5,6,7,8-tetrahydronaphthalene-2-carbohydrazide]",5.16,reduced,3.94,16.37,,,,
"O=C(N/N=C/c1c[nH]c2ncc(Br)cc12)c1ccccn1 [RF-87A (2b), (E)-N-((5-Bromo-1H-pyrrolo[2,3-b]pyridin-3-yl)methylene)picolinohydrazide]",4.33,reduced,3.85,3.01,reduced MMP-2 activity only at the lower concentration (1 μM),,,
"O=C(N/N=C/c1c[nH]c2ncc(Br)cc12)c1cnccn1 [RF-94A (2c), (E)-N-((5-Bromo-1H-pyrrolo[2,3-b]pyridin-3-yl)methylene)pyrazine-2-carbohydrazide]",4.28,reduced,4.59,0.49,,higher number of apoptotic cells,,
